Read-outs that look alike come from different tables or passages of the source.
How the values were obtained:
B-CLL cells [1] = assay: formazane reduction assay (MMT test), cytotoxicity after 24 h incubation of the patient's blood; type: cell-based, human
Protocol: Compounds according to the invention were tested as inductors of a cytotoxic reaction, i.e. triggering of apoptosis, in the case of chronic lymphatic leukemia (B-CLL).
Fludarabine, which is used in B-CLL as a standard chemotherapeutic agent, was employed as a positive control. A cytotoxicity up to a maximum of 60% was achievable under equal test conditions.
The cytotoxicity of the B-CLL cells was determined by means of a commercially available formazane reduction assay (MMT test) after 24 h of incubation of the patient's blood with the active substances.

B-CLL cells [2] = assay: cytotoxicity / vitality of purified primary B-CLL cells (CellTiter-Glo ATP assay, resazurine vitality test), 72 h; type: cell-based; conditions: Homo sapiens; leukemic B lymphocytes of a B-CLL patient with an 11q deletion (FIG. 1)
From the text: In order to check the selective effect of various substances as to the vitality of human cells, isolated B cells from patients suffering from chronic B cell leukemia (B-CLL) and also purified […] (PBMC) and erythrocytes from healthy donors were investigated. The permanent human EHEB B-CLL cell line was selected as a model system for the chronic lymphatic B cell leukemia. It is known in the literature that as compared to primary B-CLL cells the EHEB cells respond in a much more insensitive fashion to proapoptotic signals. The cells were incubated with concentration series of the test substances for 3 days and the vitality of the cells was determined by means of CellTiter-Glo™ ATP assay (Promega, catalog number G7571) according to the manufacturer's instructions after this period.
Primary tumor cells are isolated from whole blood by means of density gradient centrifugation. To this end, the patient's whole blood is incubated with 50.0 μl human B cell enrichment cocktail (RosetteSep; Stem Cell Technology, Cat #15064) per milliliter whole blood at room temperature (RT) for 20 min. […] Having determined the cell number by means of trypan blue staining (trypan blue solution of Sigma-Aldrich, catalog no. T-8154) the desired number of test plates can be prepared. […]

caspases 3, 7 and 9 = assay: caspase-Glo 3/7 and caspase-Glo 9 assays in EHEB cells; type: cell-based, human; conditions: 4.5 and 24 hours (FIG. 2)
Protocol: In order to determine the specific induction of programmed cell death (apoptosis), a detection thereof was carried out by means of caspase-3/7 activity; the caspase-3/7 activity is described in the literature as a safe detection of apoptosis.
The EHEB cells were prepared as described above and incubated with three concentration dilutions, each in triple determination, for 4.5 and 24 hours. Thus, substance final concentrations were selected from 50.0, 10.0 and 2.00 μM for the 4 hour batches as well as 10.0, 1.00 and 0.50 μM for the 24 hour batches. In this connection, staurosporine in a final concentration of 2.00 μM (4 hour batches) and 0.50 μM (24 hour batches) acted as the positive control. In order to detect the caspase-3/7 activity, the caspase-Glo 3/7 and caspase-Glo 9 assays of Promega company were used; in this connection, the enzyme activity was determined by means of a luminescence signal which was recorded with the FluostarOPTIMA measurement device (BMG Labtechnologies).
The results were evaluated by a comparison between the relative luminescence intensity of the test substances and the positive control (staurosporine=100%) by means of the Excel program. The relative intensities for the substances according to the invention are up to 100% with an inhibitor concentration between 1 and 50 μM. […]

B-CLL cells [3] = assay: synergistic effect with fludarabine on induction of apoptosis in purified B-CLL cells; type: cell-based, human
From the text: As shown, a combination of an exemplary substance according to the invention with fludarabine already yields a total toxicity of the B-CLL cells of over 80% with a 10% toxic concentration of each partner. In the case of an additive effect of both substances, only about 20% toxicity could be expected. If the concentration of both substances is increased such that each substance kills 20% of the cells in a separate test, a toxicity of almost 100% is obtained in this synergy experiment.

CCOc1nc(N2CCNCC2)c2[nH]c3cc(-c4ccncc4)ccc3c2n1 [2-ethoxy-4-(piperazin-1-yl)-7-(pyridin-4-yl)-5H-pyrimido[5,4-b]indole]
cytotoxicity (apoptosis) of the leukemia cells, maximum reached (B-CLL cells [1]): up to 100%

OCCOc1nc(N2CCNCC2)nc2c1[nH]c1cc(-c3ccncc3)ccc12 [2-{2-(piperazin-1-yl)-7-(pyridin-4-yl)-5H-pyrimido[5,4-b]indol-4-yloxy}ethanol]
cytotoxicity (apoptosis) of the leukemia cells, maximum reached (B-CLL cells [1]): up to 100%

CCOc1nc(N2CCNCC2)nc2c1[nH]c1cc(-c3cccc(C(=O)O)c3)ccc12.Cl [3-(4-ethoxy-2-(piperazin-1-yl)-5H-pyrimido[5,4-b]indol-7-yl)benzoic acid hydrochloride]
cytotoxicity (apoptosis) of the leukemia cells, maximum reached (B-CLL cells [1]): up to 100%

CCOc1nc(N2CCNCC2)nc2c1[nH]c1cc(-c3cccc(C(=O)OC)c3)ccc12 [3-(4-ethoxy-2-(piperazin-1-yl)-5H-pyrimido[5,4-b]indol-7-yl)benzoic acid methyl ester]
cytotoxicity (apoptosis) of the leukemia cells, maximum reached (B-CLL cells [1]): up to 100%

CCOC(=O)c1ccc(-c2ccc3c(c2)[nH]c2c(OCC)nc(N4CCNCC4)nc23)cc1 [4-(4-ethoxy-2-(piperazin-1-yl)-5H-pyrimido[5,4-b]indol-7-yl)benzoic acid ethyl ester]
cytotoxicity (apoptosis) of the leukemia cells, maximum reached (B-CLL cells [1]): up to 100%

CCOc1nc(N2CCNCC2)nc2c1[nH]c1cc(-c3ccc(C(=O)O)cc3)ccc12.Cl [4-(4-ethoxy-2-(piperazin-1-yl)-5H-pyrimido[5,4-b]indol-7-yl)benzoic acid hydrochloride]
cytotoxicity (apoptosis) of the leukemia cells, maximum reached (B-CLL cells [1]): up to 100%

CCOc1nc(N2CCNCC2)nc2c1[nH]c1cc(-c3ccc(O)cc3)ccc12.Cl [4-(4-ethoxy-2-(piperazin-1-yl)-5H-pyrimido[5,4-b]indol-7-yl)phenol-hydrochloride]
cytotoxicity (apoptosis) of the leukemia cells, maximum reached (B-CLL cells [1]): up to 100%

CCOc1nc(N2CCN(C)CC2)nc2c1[nH]c1cc(-c3ccncc3)ccc12 [4-ethoxy-2-(4-methylpiperazin-1-yl)-7-(pyridin-4-yl)-5H-pyrimido[5,4-b]indole]
cytotoxicity (apoptosis) of the leukemia cells, maximum reached (B-CLL cells [1]): up to 100%

CCOc1nc(N2CCNCC2)nc2c1[nH]c1cc(-c3ccc(N)nc3)ccc12 [4-ethoxy-2-(piperazin-1-yl)-7-(2-aminopyridin-5-yl)-5H-pyrimido[5,4-b]indole]
cytotoxicity (apoptosis) of the leukemia cells, maximum reached (B-CLL cells [1]): up to 100%

CCOc1nc(N2CCNCC2)nc2c1[nH]c1cc(-c3ccc(OC)c(OC)c3)ccc12 [4-ethoxy-2-(piperazin-1-yl)-7-(3,4-dimethoxy-phenyl)-5H-pyrimido[5,4-b]indole]
cytotoxicity (apoptosis) of the leukemia cells, maximum reached (B-CLL cells [1]): up to 100%

CCOc1nc(N2CCNCC2)nc2c1[nH]c1cc(-c3cccnc3)ccc12 [4-ethoxy-2-(piperazin-1-yl)-7-(pyridin-3-yl)-5H-pyrimido[5,4-b]indole]
cytotoxicity (apoptosis) of the leukemia cells, maximum reached (B-CLL cells [1]): up to 100%

CCOc1nc(N2CCNCC2)nc2c1[nH]c1cc(-c3ccncc3)ccc12 [4-ethoxy-2-(piperazin-1-yl)-7-(pyridin-4-yl)-5H-pyrimido[5,4-b]indole]
cytotoxicity (apoptosis) of the leukemia cells, maximum reached (B-CLL cells [1]): up to 100% | IC50 (B-CLL cells [2]): 80 nM | activation of caspases 3, 7 and 9 (caspases 3, 7 and 9): activating caspases 3, 7, and 9 | total toxicity of the B-CLL cells (B-CLL cells [3]; combination with fludarabine, 10% toxic concentration of each partner): over 80% | toxicity of the B-CLL cells (B-CLL cells [3]; combination with fludarabine, each substance kills 20% of the cells in a separate test): ~100% | effect of combination with fludarabine on the induction of apoptosis (B-CLL cells [3]; purified B-CLL cells (FIG. 4)): synergistic effect

CCOc1nc(N2CCNCC2)nc2c1[nH]c1ccc(-c3ccncc3)cc12 [4-ethoxy-2-(piperazin-1-yl)-8-(pyridin-4-yl)-5H-pyrimido[5,4-b]indole]
cytotoxicity (apoptosis) of the leukemia cells, maximum reached (B-CLL cells [1]): up to 100%

CCOc1nc(N2CCNCC2)nc2c1[nH]c1cc(N3CCOCC3)ccc12 [4-ethoxy-7-morpholino-2-(piperazin-1-yl)-5H-pyrimido[5,4-b]indole]
cytotoxicity (apoptosis) of the leukemia cells, maximum reached (B-CLL cells [1]): up to 100%

CCOc1nc(N2CCNCC2)nc2c1[nH]c1cc(-c3ccncc3)cc(OC)c12 [4-ethoxy-9-methoxy-2-(piperazin-1-yl)-7-(pyridin-4-yl)-5H-pyrimido[5,4-b]indole]
cytotoxicity (apoptosis) of the leukemia cells, maximum reached (B-CLL cells [1]): up to 100%

CCOc1nc(N2CCNCC2)nc2c1[nH]c1cc(-c3ccccc3N)cc(OC)c12 [Example 1, 2-(4-ethoxy-9-methoxy-2-(piperazin-1-yl)-5H-pyrimido[5,4-b]indol-7-yl)benzene amine]
cytotoxicity (apoptosis) of the leukemia cells, maximum reached (B-CLL cells [1]): up to 100%

CCOc1nc(N2CCNCC2)nc2c1[nH]c1c(-c3ccncc3)cccc12 [Example 8, 4-ethoxy-2-(piperazin-1-yl)-6-(pyridin-4-yl)-5H-pyrimido[5,4,-b]indole]
cytotoxicity (apoptosis) of the leukemia cells, maximum reached (B-CLL cells [1]): up to 100%

Nc1nc(F)nc2c1ncn2[C@@H]1O[C@H](CO)[C@@H](O)[C@@H]1O [Fludarabine, fludarabine, reference compound]
cytotoxicity (apoptosis) of the leukemia cells, maximum reached (B-CLL cells [1]; ex vivo, blood of B-CLL patients, 24 h incubation): ≤ 60%
